`O=C1C[C@H](O)C[C@@H](/C=C/c2cnc3ccccc3c2Sc2ccc(F)cc2)O1` [Compound A2] gave a melting point of 130 to 132 °C. In the case of `CC(C)c1ccc(Sc2c(/C=C/[C@@H]3C[C@@H](O)CC(=O)O3)cnc3ccccc23)cc1` [Compound A4], the melting point is reported as 147 to 148 °C. Work on `CC(C)c1ccc(Sc2c(/C=C/[C@@H]3C[C@@H](O)CC(=O)O3)cnc3cc(Cl)c(F)cc23)cc1` [Compound A12] yielded a melting point of 175 to 177 °C. Work on `COc1cccc(Sc2cc3ncc(/C=C/[C@@H]4C[C@@H](O)CC(=O)O4)c(Sc4cccc(OC)c4)c3cc2Sc2cccc(OC)c2)c1` [Compound A31] yielded a melting point of 57 to 59 °C. `CC(C)c1ccc(Sc2cc3ncc(/C=C/[C@@H]4C[C@@H](O)CC(=O)O4)c(Sc4ccc(C(C)C)cc4)c3cc2Sc2ccc(C(C)C)cc2)cc1` [Compound A32] gave a melting point of 182 to 184 °C.

Source: patent US8349867B2, “Quinoline compounds, intermediates, preparation methods and uses thereof” (Shanghai Institute of Pharmaceutical Industry, priority 2006, dated 2013)
